The test system of data set [1] is human APOE RNA. The data set can be described thus: Activity in APOE C57BL/6NTac-Apoeem7250 knock-in mice, single ICV bolus, 20 weeks (Example 13). In kind it is in vivo. The note with it: single ICV bolus 300 μg, 20 weeks post treatment, normalized to mouse Ppia. As to the method:
Modified oligonucleotides described above were tested in the APOE C57BL/6NTac-Apoeem7250 knock-in mouse model described above.
APOE C57BL/6NTac-Apoeem7250 knock-in mice were divided into groups of 4 mice each. Each mouse received a single ICV bolus of 300 μg of modified oligonucleotide. A group of 2-4 mice received a single ICV bolus with PBS as a negative control.
Twenty weeks post treatment, mice were sacrificed and RNA was extracted from cortical brain tissue and spinal cord for quantitative real-time RT-PCR analysis of RNA expression of APOE using human primer probe set RTS3073 (described herein above). APOE RNA levels were normalized to mouse Ppia. Mouse Ppia was amplified using primer probe set m_cyclo24 (described herein above). Results are presented as percent human APOE RNA relative to the amount of human APOE RNA in PBS treated animals, (% control). Each experiment is identified in separate tables below.

The subject of data set [2] is human APOE RNA. The data set can be described thus: Dose-dependent inhibition of human APOE RNA in HepG2 cells, electroporation, 24 hours (Example 6). It counts as cell-based. The method, then: Modified oligonucleotides selected from the examples above were tested at various doses in HepG2.
HepG2 cells plated at a density of 50,000 cells per well were treated by electroporation with various concentrations of modified oligonucleotide as specified in the tables below. […] APOE RNA levels were measured using the human primer probe set RTS3073 (described herein above). APOE RNA levels were normalized to human GAPDH. Human GAPDH was amplified using human primer probe set RTS 104 (described herein above). Results are presented as percent APOE RNA, relative to the amount of APOE RNA in untreated control cells (% UTC). The half maximal inhibitory concentration (IC50) of each modified oligonucleotide was calculated in GraphPad Prism 10 (GraphPad Software, San Diego, CA) and is also presented in the tables below.

Data set [3] has as its system human APOE RNA. The data set can be described thus: Activity in APOE C57BL/6NTac-Apoeem7250 knock-in mice, single ICV bolus, 4 weeks (Example 10). The note with it: C57BL/6NTac-Apoeem7250 knock-in mice, single ICV bolus 300 μg, 4 weeks (Table 22). It counts as in vivo. The procedure, abridged:
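Knock-in mice (2–4 per group) received one 300 μg ICV bolus of oligonucleotide or PBS. After four weeks, human APOE RNA in cortex and spinal cord measured by RT-qPCR (primer probe set RTS3073), normalized to mouse Ppia, expressed as % of PBS controls.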

Data set [4] has as its system human APOE RNA. Description: Activity in APOE C57BL/6NTac-Apoeem7250 knock-in mice, single ICV bolus, 16 weeks (Example 12). It counts as in vivo. Particulars: single ICV bolus 300 μg, 16 weeks post treatment, normalized to mouse Ppia. The method, boiled down:
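Knock-in mice (3-4 per group) received one ICV bolus of 300 μg oligonucleotide, PBS as control. After 16 weeks, human APOE RNA in cortex and spinal cord measured by RT-qPCR, normalized to mouse Ppia, and reported as % of PBS control.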

Strand notation (5' to 3'): a small letter for the sugar, then the base; units joined by * are phosphorothioate-linked, units joined directly phosphodiester-linked; [ ] holds rarer units or linkages, { } end groups; capitals alone tell only the bases. [ms] = mesyl phosphoramidate linkage; e = 2'-O-(2-methoxyethyl) (MOE); k = constrained ethyl (cEt); [5mC] = 5-methylcytosine; d = 2'-deoxy (DNA)

On to “1779701 (e[5mC]*eTeT*kG*kG*dT[ms]dG[ms]dA[ms]dA[ms]dT*d[5mC]*dT*dT*dT*dA[ms]dT*eT*eA*eA*eA; antisense) [Compound 1779701]”, for which, in the data set on human APOE RNA [1], the “APOE RNA (% control) Cortex” value came to 56 % control and the “APOE RNA (% control) Spinal Cord” value turned out to be 24 % control.
Take “1779970 (e[5mC]*eTeTkG*kG*eT*dG[ms]dA[ms]dA*dT*d[5mC]*dT*dT*dT*dA*dT*eT*eA*eA*eA; antisense) [Compound 1779970]”: in the data set with human APOE RNA [1], the “APOE RNA (% control) Cortex” value is 63 % control and the “APOE RNA (% control) Spinal Cord” value worked out at 35 % control.
Regarding “1736514 (e[5mC]*eTeT*eG*kG*kT*dG[ms]dA[ms]dA[ms]dT*d[5mC]*dT*dT*dT*dA[ms]dT*eT*eA*eA*eA; antisense) [Compound 1736514]”, in the data set on human APOE RNA [2], the IC50 was determined as 670 nM. Further, the “APOE RNA (% UTC)” value in the data set with human APOE RNA [2] (5 nM) is 121 % UTC; with human APOE RNA [2] (13 nM), 123 % UTC; in the data set on human APOE RNA [2] (33 nM), 96 % UTC; in the data set with human APOE RNA [2] (82 nM) it was 77 % UTC; in the data set with human APOE RNA [2] (205 nM), 80 % UTC; in the data set on human APOE RNA [2] (512 nM) it was 46 % UTC. The “APOE RNA (% UTC)” value in the data set with human APOE RNA [2] (1,280 nM) turned out to be 33 % UTC; in the data set with human APOE RNA [2] (3,200 nM), 25 % UTC; in the data set with human APOE RNA [2] (8,000 nM) it was 23 % UTC; with human APOE RNA [2] (20,000 nM) it was 6 % UTC. The “APOE RNA (% control) Cortex” value in the data set on human APOE RNA [3] worked out at 28 % control; with human APOE RNA [4], 39 % control. The “APOE RNA (% control) Spinal Cord” value in the data set with human APOE RNA [3] is recorded as 54 % control; in the data set with human APOE RNA [4] it was 16 % control.
Take “1757584 (eT*eTeGeGeT*dG*dA*dA*dT*d[5mC]*dT*dT*dT*dA*dT*kTkAeA*eA*e[5mC]; antisense) [Compound 1757584]”: in the data set on human APOE RNA [1], the “APOE RNA (% control) Cortex” value came out at 92 % control and the “APOE RNA (% control) Spinal Cord” value turned out to be 95 % control.
On to “1736532 (e[5mC]*eT*eT*eG*kG*kTdG[ms]dA[ms]dA[ms]dT*d[5mC]*dT*dT*dT*dA[ms]dT*eT*eA*eA*eA; antisense) [Compound 1736532]”, for which it took 280 nM to reach half-maximal inhibition with human APOE RNA [2] (IC50). Also, the “APOE RNA (% UTC)” value is reported as 81 % UTC in the data set on human APOE RNA [2] (5 nM); 85 % UTC with human APOE RNA [2] (13 nM); 74 % UTC in the data set with human APOE RNA [2] (33 nM); 71 % UTC with human APOE RNA [2] (82 nM); 54 % UTC in the data set on human APOE RNA [2] (205 nM); 41 % UTC in the data set with human APOE RNA [2] (512 nM). Also, the “APOE RNA (% UTC)” value in the data set with human APOE RNA [2] (1,280 nM) is listed as 32 % UTC; in the data set on human APOE RNA [2] (3,200 nM) it was 17 % UTC; with human APOE RNA [2] (8,000 nM), 23 % UTC; in the data set with human APOE RNA [2] (20,000 nM), 5 % UTC. Further, the figures for the “APOE RNA (% control) Cortex” value in the data set on human APOE RNA [3] and in the data set with human APOE RNA [4] were 30 % control and 34 % control, respectively. Also, the “APOE RNA (% control) Spinal Cord” value in the data set on human APOE RNA [3] came to 38 % control; in the data set on human APOE RNA [4], 45 % control.
As for “1757583 (eT*eTeGeGeT*dG*dA*dA*dT*d[5mC]*dT*dT*dT*dA*dT*kTeAeA*eA*e[5mC]; antisense) [Compound 1757583]”, in the data set with human APOE RNA [1], the “APOE RNA (% control) Cortex” value worked out at 97 % control and the “APOE RNA (% control) Spinal Cord” value was 100 % control.
“1736513 (e[5mC]*eTeT*eG*eG*kT*dG[ms]dA[ms]dA[ms]dT*d[5mC]*dT*dT*dT*dA[ms]dT*eT*eA*eA*eA; antisense) [Compound 1736513]” displayed an IC50 in the data set with human APOE RNA [2] of 720 nM. Besides, the “APOE RNA (% UTC)” value in the data set on human APOE RNA [2] (5 nM) was 106 % UTC; in the data set with human APOE RNA [2] (13 nM), 110 % UTC; in the data set with human APOE RNA [2] (33 nM) it was 114 % UTC; in the data set on human APOE RNA [2] (82 nM), 89 % UTC; with human APOE RNA [2] (205 nM), 72 % UTC; in the data set on human APOE RNA [2] (512 nM) it was 47 % UTC. In addition, the “APOE RNA (% UTC)” value in the data set on human APOE RNA [2] (1,280 nM) is listed as 37 % UTC; in the data set with human APOE RNA [2] (3,200 nM), 33 % UTC; in the data set on human APOE RNA [2] (8,000 nM) it was 9 % UTC; in the data set on human APOE RNA [2] (20,000 nM), 4 % UTC. The “APOE RNA (% control) Cortex” value with human APOE RNA [3] amounted to 42 % control; with human APOE RNA [4] it was 53 % control. The figures for the “APOE RNA (% control) Spinal Cord” value in the data set with human APOE RNA [3] and with human APOE RNA [4] were 52 % control and 30 % control, respectively.

Source of the values: patent US20250353873A1, “COMPOUNDS AND METHODS FOR MODULATING APOE EXPRESSION” (Ionis Pharmaceuticals, Inc., priority 2024, published 2025).
